Measurements published in ChEMBL document CHEMBL1201862, “PubChem BioAssay data set” (2004).
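Results reflect a 48-hour exposure of cells in 96-well plates to compound at five concentrations. At the GI50, growth is halved.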 Activity calls are given as the source filed them. No stated cut-off is given here; in the data, active = GI50 up to about 1.1 µM and inactive = higher.

How the values were obtained:
Assay in all cases: DTP human tumour cell line panel, 48 h
SK-MEL-5 = tested on: SK-MEL-5
A498 = tested on: A498
LXFL 529 = tested on: LXFL 529
HCC 2998 = tested on: HCC 2998
KM-20L2 = tested on: KM-20L2
SN12C = tested on: SN12C
SW-620 = tested on: SW-620
SK-MEL-2 = tested on: SK-MEL-2
RXF 393 = tested on: RXF 393
HCT-116 = tested on: HCT-116
UACC-257 = tested on: UACC-257
SF-295 = tested on: SF-295
OVCAR-5 = tested on: OVCAR-5
NCI-H23 = tested on: NCI-H23
SF-539 = tested on: SF-539
EKVX = tested on: EKVX
OVCAR-4 = tested on: OVCAR-4
PC-3 = tested on: PC-3
BT-549 = tested on: BT-549
Hs-578T = tested on: Hs-578T

COc1ccc2c(CN3CCCCC3CO)cc3cc(OC)c(OC)cc3c2c1 (configuration not stated)
GI50 (SK-MEL-5): 7.5 µM (inactive)
GI50 (A498): 3.59 µM (inactive)
GI50 (LXFL 529): 4.9 µM (inactive)
GI50 (HCC 2998): 7.59 µM (inactive)
GI50 (KM-20L2): 3.64 µM (inactive)
GI50 (SN12C): 6.25 µM (inactive)
GI50 (SW-620): 3.88 µM (inactive)
GI50 (SK-MEL-2): 4.17 µM (inactive)
GI50 (RXF 393): 6.65 µM (inactive)
GI50 (HCT-116): 1.75 µM (inactive)
GI50 (UACC-257): 3.82 µM (inactive)
GI50 (SF-295): 3.02 µM (inactive)
GI50 (OVCAR-5): 3.1 µM (inactive)
GI50 (NCI-H23): 3.81 µM (inactive)
GI50 (SF-539): 4.02 µM (inactive)
GI50 (EKVX): 6.41 µM (inactive)

C/C(CC(=O)Nc1ccc(NC(=O)C/C(C)=N\NC(N)=O)cc1)=N/NC(N)=O
GI50 (SK-MEL-5): > 100 µM (inactive)
GI50 (OVCAR-4): 96.2 µM (inactive)
GI50 (A498): > 100 µM (inactive)
GI50 (LXFL 529): 65.9 µM (inactive)
GI50 (HCC 2998): > 100 µM (inactive)
GI50 (KM-20L2): > 100 µM (inactive)
GI50 (SN12C): > 100 µM (inactive)
GI50 (SW-620): > 100 µM (inactive)
GI50 (SK-MEL-2): > 95.3 µM (inactive)
GI50 (RXF 393): > 91.4 µM (inactive)
GI50 (HCT-116): > 68.9 µM (inactive)
GI50 (UACC-257): > 100 µM (inactive)
GI50 (SF-295): > 100 µM (inactive)
GI50 (OVCAR-5): > 100 µM (inactive)
GI50 (NCI-H23): 98.4 µM (inactive)
GI50 (SF-539): > 100 µM (inactive)
GI50 (EKVX): > 74.3 µM (inactive)

O=C(CSc1nnc(Cc2ccccc2)o1)Nc1cccc(Cl)c1
GI50 (SK-MEL-5): 76.7 µM (inactive)
GI50 (OVCAR-4): 51.2 µM (inactive)
GI50 (A498): > 100 µM (inactive)
GI50 (LXFL 529): 44.1 µM (inactive)
GI50 (HCC 2998): 96.6 µM (inactive)
GI50 (KM-20L2): > 100 µM (inactive)
GI50 (SN12C): 97.1 µM (inactive)
GI50 (SW-620): > 100 µM (inactive)
GI50 (SK-MEL-2): 70.8 µM (inactive)
GI50 (RXF 393): > 100 µM (inactive)
GI50 (HCT-116): > 100 µM (inactive)
GI50 (UACC-257): > 100 µM (inactive)
GI50 (SF-295): 68.7 µM (inactive)
GI50 (OVCAR-5): > 100 µM (inactive)
GI50 (NCI-H23): 66.2 µM (inactive)
GI50 (SF-539): > 100 µM (inactive)
GI50 (EKVX): > 100 µM (inactive)

O=C(NC(=O)c1ccccc1[N+](=O)[O-])Nc1ccc(Oc2ncc(Br)cn2)c(Cl)c1
GI50 (PC-3): 0.029 µM (active)
GI50 (SK-MEL-5): 0.0224 µM (active)
GI50 (OVCAR-4): 0.0284 µM (active)
GI50 (A498): 0.0225 µM (active)
GI50 (LXFL 529): 0.0302 µM (active)
GI50 (HCC 2998): 0.0875 µM (active)
GI50 (KM-20L2): 0.022 µM (active)
GI50 (SN12C): 0.0398 µM (active)
GI50 (BT-549): 0.0703 µM (active)
GI50 (SW-620): 0.0237 µM (active)
GI50 (SK-MEL-2): 0.0213 µM (active)
GI50 (RXF 393): 0.00771 µM (active)
GI50 (HCT-116): 0.0255 µM (active)
GI50 (UACC-257): 0.0237 µM (active)
GI50 (SF-295): 0.0137 µM (active)
GI50 (OVCAR-5): 0.0207 µM (active)
GI50 (NCI-H23): 0.0389 µM (active)
GI50 (SF-539): 0.0203 µM (active)
GI50 (EKVX): 0.0348 µM (active)
GI50 (Hs-578T): 0.0342 µM (active)

C/C(=N\NC(=O)c1ccccc1O)c1c(O)cc(C)oc1=O
GI50 (SK-MEL-5): 43.8 µM (inactive)
GI50 (OVCAR-4): 71 µM (inactive)
GI50 (A498): > 100 µM (inactive)
GI50 (LXFL 529): 85.5 µM (inactive)
GI50 (HCC 2998): 92 µM (inactive)
GI50 (KM-20L2): > 100 µM (inactive)
GI50 (SN12C): > 100 µM (inactive)
GI50 (SW-620): > 100 µM (inactive)
GI50 (SK-MEL-2): > 100 µM (inactive)
GI50 (RXF 393): 40.6 µM (inactive)
GI50 (HCT-116): 49.4 µM (inactive)
GI50 (UACC-257): 60 µM (inactive)
GI50 (SF-295): 51.4 µM (inactive)
GI50 (OVCAR-5): 73.3 µM (inactive)
GI50 (NCI-H23): 84.1 µM (inactive)
GI50 (SF-539): 62.8 µM (inactive)
GI50 (EKVX): 29.9 µM (inactive)
